Source: ChEMBL document CHEMBL5678818, “Discovery of potent SOS1 inhibitors that block RAS activation via disruption of the RAS-SOS1 interaction” (Proc Natl Acad Sci U S A, 2019)
Activity calls are given as the source filed them. The calls are words filed in the database; no cut-off is given here.

Assays:
[1] = tested on: Phosphatidylinositol 4,5-bisphosphate 3-kinase catalytic subunit alpha isoform (Homo sapiens), P42336 [E545A]; test: Inhibition of PIK3CA E545A mutant (unknown origin) assessed as residual activity at 100 nM by KINOMEscan analysis relative to control
Homo sapiens = species on record: Homo sapiens; test: Inhibition of JNK2 (unknown origin) assessed as residual activity at 100 nM by KINOMEscan analysis relative to control
[2] = target: T1, Serine/threonine-protein kinase Chk1 (Homo sapiens) (UniProt O14757); test: Inhibition of CHEK1 (unknown origin) assessed as residual activity at 100 nM by KINOMEscan analysis relative to control
T1 sequence (whole entry): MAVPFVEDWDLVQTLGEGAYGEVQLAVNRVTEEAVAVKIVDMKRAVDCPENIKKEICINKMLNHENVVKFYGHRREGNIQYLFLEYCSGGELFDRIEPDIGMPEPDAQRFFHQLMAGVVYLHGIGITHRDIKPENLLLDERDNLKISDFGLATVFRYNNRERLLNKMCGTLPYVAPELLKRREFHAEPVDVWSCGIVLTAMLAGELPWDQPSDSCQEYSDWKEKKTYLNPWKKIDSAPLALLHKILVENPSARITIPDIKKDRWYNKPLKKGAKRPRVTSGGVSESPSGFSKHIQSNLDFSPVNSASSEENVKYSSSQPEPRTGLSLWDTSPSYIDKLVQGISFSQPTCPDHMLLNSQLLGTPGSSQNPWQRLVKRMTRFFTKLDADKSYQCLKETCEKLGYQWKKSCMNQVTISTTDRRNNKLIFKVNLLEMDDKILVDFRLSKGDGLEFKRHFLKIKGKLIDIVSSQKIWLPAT

[3] = target: Mitogen-activated protein kinase 4 (Homo sapiens) (UniProt P31152); test: Inhibition of ERK4 (unknown origin) assessed as residual activity at 100 nM by KINOMEscan analysis relative to control
[4] = target: GTPase KRas (Homo sapiens) (UniProt P01116); test: Binding affinity to N-terminal His10-tagged wild-type human KRAS (1 to 169 residues) expressed in Escherichia coli assessed as binding at 1:1 stoichiometry at 100 uM incubated for 1 hr by native MS analysis
[5] = target: Serine/threonine-protein kinase mTOR (Homo sapiens) (UniProt P42345); test: Inhibition of MTOR (unknown origin) assessed as residual activity at 100 nM by KINOMEscan analysis relative to control
[6] = target: Non-receptor tyrosine-protein kinase TYK2 (Homo sapiens) (UniProt P29597); test: Inhibition of TYK2 JH1 catalytic domain (unknown origin) assessed as residual activity at 100 nM by KINOMEscan analysis relative to control
[7] = target: T2, Casein kinase I isoform alpha-like (Homo sapiens) (UniProt Q8N752); test: Inhibition of CSNK1A1L (unknown origin) assessed as residual activity at 100 nM by KINOMEscan analysis relative to control
T2 sequence (whole entry): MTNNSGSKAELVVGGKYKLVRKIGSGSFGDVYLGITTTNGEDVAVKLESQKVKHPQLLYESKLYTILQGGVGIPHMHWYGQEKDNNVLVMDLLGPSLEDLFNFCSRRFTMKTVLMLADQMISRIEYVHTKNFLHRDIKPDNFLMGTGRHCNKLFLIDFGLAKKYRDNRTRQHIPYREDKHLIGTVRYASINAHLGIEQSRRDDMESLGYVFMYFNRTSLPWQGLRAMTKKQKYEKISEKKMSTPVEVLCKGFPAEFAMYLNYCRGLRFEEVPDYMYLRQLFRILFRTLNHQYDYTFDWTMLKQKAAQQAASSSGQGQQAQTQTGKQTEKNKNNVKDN

[8] = target: Serine/threonine-protein kinase PAK 5 (Homo sapiens) (UniProt Q9P286); test: Inhibition of PAK7 (unknown origin) assessed as residual activity at 100 nM by KINOMEscan analysis relative to control
[9] = target: Ribosomal protein S6 kinase alpha-3 (Homo sapiens) (UniProt P51812); test: Inhibition of C-terminal RSK2 kinetic domain 2 (unknown origin) assessed as residual activity at 100 nM by KINOMEscan analysis relative to control
[10] = target: SRSF protein kinase 1 (Homo sapiens) (UniProt Q96SB4); test: Inhibition of SRPK1 (unknown origin) assessed as residual activity at 100 nM by KINOMEscan analysis relative to control
[11] = tested on: Proto-oncogene tyrosine-protein kinase receptor Ret (Homo sapiens), P07949 [M918T]; test: Inhibition of RET M918T mutant (unknown origin) assessed as residual activity at 100 nM by KINOMEscan analysis relative to control
[12] = target: Serine/threonine-protein kinase MARK1 (Homo sapiens) (UniProt Q9P0L2); test: Inhibition of MARK1 (unknown origin) assessed as residual activity at 100 nM by KINOMEscan analysis relative to control
[13] = target: T3, Ephrin type-B receptor 1 (Homo sapiens) (UniProt P54762); test: Inhibition of EPHB1 (unknown origin) assessed as residual activity at 100 nM by KINOMEscan analysis relative to control
T3 sequence (whole entry): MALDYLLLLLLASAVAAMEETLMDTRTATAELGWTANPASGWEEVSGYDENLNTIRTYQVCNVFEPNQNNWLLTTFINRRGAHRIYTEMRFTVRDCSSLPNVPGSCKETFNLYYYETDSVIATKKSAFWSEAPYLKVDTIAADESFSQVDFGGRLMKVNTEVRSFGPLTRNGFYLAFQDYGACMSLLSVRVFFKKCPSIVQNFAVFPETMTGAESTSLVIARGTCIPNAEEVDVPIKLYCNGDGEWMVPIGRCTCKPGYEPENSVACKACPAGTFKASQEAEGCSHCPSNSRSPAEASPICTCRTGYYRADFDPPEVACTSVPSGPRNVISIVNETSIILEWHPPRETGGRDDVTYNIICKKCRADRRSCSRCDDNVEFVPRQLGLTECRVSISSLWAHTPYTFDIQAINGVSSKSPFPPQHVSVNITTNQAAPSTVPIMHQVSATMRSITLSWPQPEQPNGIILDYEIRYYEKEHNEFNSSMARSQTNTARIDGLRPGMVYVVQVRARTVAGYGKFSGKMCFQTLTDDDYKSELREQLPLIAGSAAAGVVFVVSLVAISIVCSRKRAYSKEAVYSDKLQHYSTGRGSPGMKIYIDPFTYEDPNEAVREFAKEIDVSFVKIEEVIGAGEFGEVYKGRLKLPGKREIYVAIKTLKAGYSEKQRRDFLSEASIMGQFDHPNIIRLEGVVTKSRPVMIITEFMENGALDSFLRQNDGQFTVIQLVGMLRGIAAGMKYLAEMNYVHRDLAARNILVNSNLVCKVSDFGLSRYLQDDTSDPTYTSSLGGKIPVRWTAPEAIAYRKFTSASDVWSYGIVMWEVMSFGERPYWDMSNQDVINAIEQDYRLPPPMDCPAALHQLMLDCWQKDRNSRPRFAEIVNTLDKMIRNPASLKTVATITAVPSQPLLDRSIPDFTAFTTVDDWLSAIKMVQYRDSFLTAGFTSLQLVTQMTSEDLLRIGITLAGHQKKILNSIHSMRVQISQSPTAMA

In the case of COc1cc2ncnc(N[C@H](C)c3cccc4ccccc34)c2cc1OC, the Activity [1] is reported as 93%, the Activity (Homo sapiens) is reported as 68% and the Activity [2] is reported as 100%. For the same molecule, the Activity [3] was 100%, the Activity [4] was “inactive” and the Activity [5] was 82%. The Activity [6] was 94%, the Activity [7] was 100% and the Activity [8] was 100%. For the same molecule, the Activity [9] was 92%, the Activity [10] was 95% and the Activity [11] was 99%. It also gave an Activity [12] of 100% and an Activity [13] of 83%.
